Results: article PMC10174618, “Monoterpenoid aryl hydrocarbon receptor allosteric antagonists protect against ultraviolet skin damage in female mice” (Nature Communications, 2023)

What was measured:
Experiment in all cases: biochemical
Design in all cases: KINOMEscan scanMAX active site-directed competition binding assay, percent of control, 468 kinases
Conditions in all cases: competition binding, percent of control
[1] = biological target: MAP3K1 (Homo sapiens, UniProt Q13233)
Outline: (§1)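 KINOMEscan active site-directed competition binding assay against 468 human kinases with 100 μM S-carvone. Binding expressed as % of control, with 35% of control as the inhibition threshold.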

[2] = biological target: EPHA3 (Homo sapiens, UniProt P29320)
Outline: as §1

[3] = biological target: T1, PRP4 (Homo sapiens, UniProt Q13523)
T1 construct: gene PRPF4B
Outline: as §1

[4] = biological target: ALK (Homo sapiens, UniProt Q9UM73)
Outline: as §1

[5] = biological target: T2, IKK-alpha (Homo sapiens, UniProt O15111)
T2 construct: gene CHUK
T2 sequence (O15111 whole entry): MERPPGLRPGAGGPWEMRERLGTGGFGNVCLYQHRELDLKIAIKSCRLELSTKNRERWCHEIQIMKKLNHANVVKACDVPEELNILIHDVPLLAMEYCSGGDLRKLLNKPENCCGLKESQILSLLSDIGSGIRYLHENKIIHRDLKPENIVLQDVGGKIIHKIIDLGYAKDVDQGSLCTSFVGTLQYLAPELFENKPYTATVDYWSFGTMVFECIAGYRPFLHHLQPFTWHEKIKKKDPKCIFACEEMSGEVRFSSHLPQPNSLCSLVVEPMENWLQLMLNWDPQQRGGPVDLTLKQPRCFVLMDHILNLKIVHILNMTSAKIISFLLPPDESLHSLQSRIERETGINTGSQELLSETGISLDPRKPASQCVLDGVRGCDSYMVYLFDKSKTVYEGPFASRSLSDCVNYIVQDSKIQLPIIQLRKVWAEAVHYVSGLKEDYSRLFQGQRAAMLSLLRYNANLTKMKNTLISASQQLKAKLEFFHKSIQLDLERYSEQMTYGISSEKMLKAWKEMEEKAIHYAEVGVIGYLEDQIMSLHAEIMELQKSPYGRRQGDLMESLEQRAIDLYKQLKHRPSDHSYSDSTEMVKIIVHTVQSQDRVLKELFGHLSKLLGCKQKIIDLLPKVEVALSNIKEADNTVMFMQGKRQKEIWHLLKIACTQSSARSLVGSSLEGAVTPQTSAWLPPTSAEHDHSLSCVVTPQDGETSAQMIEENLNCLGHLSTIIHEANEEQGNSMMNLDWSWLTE
Outline: as §1

[6] = biological target: PIK3CA (Homo sapiens, UniProt P42336)
PIK3CA, sequence (P42336 whole entry): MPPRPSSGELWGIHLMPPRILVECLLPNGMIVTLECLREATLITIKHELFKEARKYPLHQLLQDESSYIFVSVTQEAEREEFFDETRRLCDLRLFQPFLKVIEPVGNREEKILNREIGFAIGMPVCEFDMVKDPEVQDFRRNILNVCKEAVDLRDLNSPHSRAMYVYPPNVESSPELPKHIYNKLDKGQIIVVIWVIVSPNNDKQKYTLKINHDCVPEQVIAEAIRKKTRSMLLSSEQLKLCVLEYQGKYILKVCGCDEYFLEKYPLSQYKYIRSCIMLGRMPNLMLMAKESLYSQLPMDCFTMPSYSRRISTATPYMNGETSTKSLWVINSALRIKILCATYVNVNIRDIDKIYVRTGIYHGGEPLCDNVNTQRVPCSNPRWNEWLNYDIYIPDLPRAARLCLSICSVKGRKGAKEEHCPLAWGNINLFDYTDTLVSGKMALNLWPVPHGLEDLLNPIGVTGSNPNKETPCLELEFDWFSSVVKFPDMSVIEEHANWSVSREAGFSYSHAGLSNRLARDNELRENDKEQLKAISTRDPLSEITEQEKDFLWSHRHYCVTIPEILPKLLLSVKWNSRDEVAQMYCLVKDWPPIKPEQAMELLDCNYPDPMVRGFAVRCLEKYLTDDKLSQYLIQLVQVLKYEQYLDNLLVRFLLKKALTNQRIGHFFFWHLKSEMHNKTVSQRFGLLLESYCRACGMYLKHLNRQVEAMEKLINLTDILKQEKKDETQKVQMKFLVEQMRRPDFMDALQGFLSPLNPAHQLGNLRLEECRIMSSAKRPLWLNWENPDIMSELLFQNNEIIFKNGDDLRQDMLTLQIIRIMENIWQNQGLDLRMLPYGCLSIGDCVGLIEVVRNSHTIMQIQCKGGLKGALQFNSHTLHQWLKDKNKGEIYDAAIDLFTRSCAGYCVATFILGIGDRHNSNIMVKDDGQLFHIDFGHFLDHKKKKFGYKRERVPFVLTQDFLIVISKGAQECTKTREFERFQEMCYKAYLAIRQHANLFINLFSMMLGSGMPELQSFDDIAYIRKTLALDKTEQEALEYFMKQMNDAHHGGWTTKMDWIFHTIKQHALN
Outline: as §1

[7] = biological target: T3, RIPK5 (Homo sapiens, UniProt Q6XUX3)
T3 construct: gene DSTYK
T3 sequence (Q6XUX3 whole entry): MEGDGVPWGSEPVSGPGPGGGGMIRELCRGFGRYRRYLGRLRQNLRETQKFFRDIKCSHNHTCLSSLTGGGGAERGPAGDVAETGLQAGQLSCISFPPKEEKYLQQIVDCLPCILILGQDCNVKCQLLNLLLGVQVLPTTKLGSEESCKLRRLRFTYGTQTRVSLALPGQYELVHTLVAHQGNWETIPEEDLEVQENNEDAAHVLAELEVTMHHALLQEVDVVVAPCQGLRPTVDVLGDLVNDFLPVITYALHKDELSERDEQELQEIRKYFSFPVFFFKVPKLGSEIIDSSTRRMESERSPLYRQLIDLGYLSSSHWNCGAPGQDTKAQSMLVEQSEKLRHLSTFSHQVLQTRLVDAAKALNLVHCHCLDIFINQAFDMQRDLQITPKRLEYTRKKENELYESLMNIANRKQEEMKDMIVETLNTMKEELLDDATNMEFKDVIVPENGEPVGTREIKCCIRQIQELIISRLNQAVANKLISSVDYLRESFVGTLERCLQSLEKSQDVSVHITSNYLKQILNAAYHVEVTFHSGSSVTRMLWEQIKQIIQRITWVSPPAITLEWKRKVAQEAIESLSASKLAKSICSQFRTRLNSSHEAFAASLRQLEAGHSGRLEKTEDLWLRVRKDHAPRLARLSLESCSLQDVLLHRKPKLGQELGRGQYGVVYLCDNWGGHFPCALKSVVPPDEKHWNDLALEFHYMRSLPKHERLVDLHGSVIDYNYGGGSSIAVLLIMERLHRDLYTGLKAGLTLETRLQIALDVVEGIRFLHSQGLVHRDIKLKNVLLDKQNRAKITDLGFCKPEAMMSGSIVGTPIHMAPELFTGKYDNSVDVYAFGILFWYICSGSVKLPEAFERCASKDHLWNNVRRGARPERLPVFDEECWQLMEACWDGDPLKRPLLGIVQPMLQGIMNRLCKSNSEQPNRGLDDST
Outline: as §1

[8] = biological target: MERTK (Homo sapiens, UniProt Q12866)
Outline: as §1

[9] = biological target: BMPR1B (Homo sapiens, UniProt O00238)
Outline: as §1

[10] = biological target: MAP3K2 (Homo sapiens, UniProt Q9Y2U5)
MAP3K2, sequence (Q9Y2U5 whole entry): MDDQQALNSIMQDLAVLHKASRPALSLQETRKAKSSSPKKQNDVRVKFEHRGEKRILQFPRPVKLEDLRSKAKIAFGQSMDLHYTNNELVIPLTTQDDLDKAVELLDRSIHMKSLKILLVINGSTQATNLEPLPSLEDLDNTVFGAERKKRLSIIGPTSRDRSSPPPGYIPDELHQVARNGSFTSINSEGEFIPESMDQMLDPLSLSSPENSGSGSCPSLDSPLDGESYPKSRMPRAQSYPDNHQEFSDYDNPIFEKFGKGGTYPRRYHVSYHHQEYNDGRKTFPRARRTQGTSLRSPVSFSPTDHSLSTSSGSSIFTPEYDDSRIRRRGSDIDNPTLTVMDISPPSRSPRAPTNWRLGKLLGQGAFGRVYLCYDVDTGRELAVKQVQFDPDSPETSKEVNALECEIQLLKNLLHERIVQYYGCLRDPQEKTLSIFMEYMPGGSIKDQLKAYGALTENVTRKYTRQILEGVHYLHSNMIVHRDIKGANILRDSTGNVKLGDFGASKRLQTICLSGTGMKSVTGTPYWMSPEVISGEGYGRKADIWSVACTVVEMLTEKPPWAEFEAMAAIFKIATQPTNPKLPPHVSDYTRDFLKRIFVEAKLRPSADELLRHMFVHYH
Outline: as §1

[11] = biological target: EPHB2 (Homo sapiens, UniProt P29323)
Outline: as §1

[12] = biological target: DDR1 (Homo sapiens, UniProt Q08345)
Outline: as §1

[13] = biological target: PIK3C2B (Homo sapiens, UniProt O00750)
PIK3C2B, sequence (O00750 whole entry): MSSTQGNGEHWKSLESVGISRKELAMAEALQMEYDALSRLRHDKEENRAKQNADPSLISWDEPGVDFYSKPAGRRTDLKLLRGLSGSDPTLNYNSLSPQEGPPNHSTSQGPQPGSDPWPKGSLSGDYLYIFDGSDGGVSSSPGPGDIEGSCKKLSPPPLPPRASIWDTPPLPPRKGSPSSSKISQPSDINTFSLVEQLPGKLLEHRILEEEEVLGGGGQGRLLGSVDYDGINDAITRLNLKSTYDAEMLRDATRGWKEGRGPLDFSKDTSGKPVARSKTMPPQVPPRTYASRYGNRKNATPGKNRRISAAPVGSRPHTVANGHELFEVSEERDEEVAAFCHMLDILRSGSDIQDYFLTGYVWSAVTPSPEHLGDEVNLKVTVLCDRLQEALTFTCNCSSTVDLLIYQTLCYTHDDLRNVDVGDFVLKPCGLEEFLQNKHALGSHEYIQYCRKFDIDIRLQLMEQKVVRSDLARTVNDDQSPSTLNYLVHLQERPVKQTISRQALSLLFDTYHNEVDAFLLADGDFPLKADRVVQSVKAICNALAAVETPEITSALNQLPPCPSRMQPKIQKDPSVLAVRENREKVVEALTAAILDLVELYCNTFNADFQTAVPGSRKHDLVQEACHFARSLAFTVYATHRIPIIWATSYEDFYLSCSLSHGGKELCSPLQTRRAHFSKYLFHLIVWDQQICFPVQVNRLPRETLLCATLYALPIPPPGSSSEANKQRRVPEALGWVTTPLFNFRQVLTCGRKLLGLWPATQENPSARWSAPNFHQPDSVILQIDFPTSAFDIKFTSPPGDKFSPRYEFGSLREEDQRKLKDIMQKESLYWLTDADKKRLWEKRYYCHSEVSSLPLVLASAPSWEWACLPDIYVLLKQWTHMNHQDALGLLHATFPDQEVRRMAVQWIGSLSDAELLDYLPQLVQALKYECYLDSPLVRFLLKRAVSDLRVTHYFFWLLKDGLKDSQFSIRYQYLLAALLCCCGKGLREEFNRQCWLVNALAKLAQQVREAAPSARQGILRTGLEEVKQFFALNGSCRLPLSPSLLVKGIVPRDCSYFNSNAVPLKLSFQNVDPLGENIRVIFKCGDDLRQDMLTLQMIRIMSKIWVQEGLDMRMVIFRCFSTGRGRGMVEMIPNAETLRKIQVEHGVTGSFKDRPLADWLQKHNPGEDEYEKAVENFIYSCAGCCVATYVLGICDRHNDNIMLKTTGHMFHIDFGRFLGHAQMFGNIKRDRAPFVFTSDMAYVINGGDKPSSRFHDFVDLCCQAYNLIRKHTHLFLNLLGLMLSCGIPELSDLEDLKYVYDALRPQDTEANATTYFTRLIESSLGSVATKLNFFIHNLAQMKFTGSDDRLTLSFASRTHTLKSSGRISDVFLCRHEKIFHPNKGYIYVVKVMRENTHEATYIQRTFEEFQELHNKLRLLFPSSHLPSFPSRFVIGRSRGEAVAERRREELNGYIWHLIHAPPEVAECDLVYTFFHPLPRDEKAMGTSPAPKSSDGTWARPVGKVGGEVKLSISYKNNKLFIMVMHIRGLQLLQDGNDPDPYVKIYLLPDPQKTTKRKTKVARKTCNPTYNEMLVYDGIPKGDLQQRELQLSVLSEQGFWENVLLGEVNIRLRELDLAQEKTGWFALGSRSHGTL
Outline: as §1

[14] = biological target: SRPK2 (Homo sapiens, UniProt P78362)
Outline: as §1

[15] = biological target: CAMK2G (Homo sapiens, UniProt Q13555)
Outline: as §1

[16] = biological target: DYRK1A (Homo sapiens, UniProt Q13627)
Outline: as §1

[17] = biological target: EPHA6 (Homo sapiens, UniProt Q9UF33)
Outline: as §1

[18] = biological target: T4, IKK-epsilon (Homo sapiens, UniProt Q14164)
T4 construct: gene IKBKE
Outline: as §1

[19] = biological target: T5, RPS6KA4(Kin.Dom.2-C-terminal) (Homo sapiens, UniProt O75676)
T5 construct: Kin.Dom.2-C-terminal
Outline: as §1

[20] = biological target: EGFR(L858R) (Homo sapiens, UniProt P00533, L858R)
Outline: as §1

[21] = biological target: ABL2 (Homo sapiens, UniProt P42684)
Outline: as §1

[22] = biological target: T6, AMPK-alpha1 (Homo sapiens, UniProt Q13131)
T6 construct: gene PRKAA1
Outline: as §1

remaining binding at 100 µM [1]: 60% | remaining binding at 100 µM [2]: 100% | remaining binding at 100 µM [3]: 62% | remaining binding at 100 µM [4]: 73% | remaining binding at 100 µM [5]: 72% | remaining binding at 100 µM [6]: 79% | remaining binding at 100 µM [7]: 61% | remaining binding at 100 µM [8]: 90% | remaining binding at 100 µM [9]: 74% | remaining binding at 100 µM [10]: 58% | remaining binding at 100 µM [11]: 66% | remaining binding at 100 µM [12]: 90% | remaining binding at 100 µM [13]: 72% | remaining binding at 100 µM [14]: 99% | remaining binding at 100 µM [15]: 84% | remaining binding at 100 µM [16]: 91% | remaining binding at 100 µM [17]: 64% | remaining binding at 100 µM [18]: 52% | remaining binding at 100 µM [19]: 75% | remaining binding at 100 µM [20]: 85% | remaining binding at 100 µM [21]: 85% | remaining binding at 100 µM [22]: 89%
SMILES: C=C(C)[C@H]1CC=C(C)C(=O)C1 [S-carvone]
